# From patent US9206167B2, “Piperazine-substituted benzothiophenes for treatment of mental disorders” (Otsuka Pharmaceutical Co., Ltd., priority 2005, dated 2015)
# Structures can show the parent of a compound that is named as a salt.
# Assays:
# Dopamine D2 receptor = Dopamine D2 receptor (Rattus norvegicus (Rat), UniProt P61169); assay: Dopamine D2 receptor binding assay ([3H]-raclopride, rat corpus striatum membrane); conditions: Ki from IC50 by Cheng-Prussoff formula
# Method: Pharmacological Test 1 1) Dopamine D2 Receptor Binding Assay
# Wistar male rats were decapitated, the brain was retrieved immediately and corpus striatum was taken out. It was homogenized in 50 mM tris(hydroxymethyl)aminomethane (Tris)-hydrochloric acid buffer (pH 7.4) of a volume 50 times of the weight of the tissue using a homogenizer with a high-speed rotating blade, and centrifuged at 4° C., 48,000×g for 10 minutes. The obtained precipitate was suspended again in the above-described buffer of a volume 50 times of the weight of the tissue and after incubated at 37° C. for 10 minutes, centrifuged in the above-described condition. The obtained precipitate was suspended in 50 mM (Tris)-hydrochloric acid buffer (containing 120 mM NaCl, 5 mM KCl, 2 mM CaCl2, 1 mM MgCl2, pH 7.4) of a volume 25 times of the weight of the tissue and preserved by freezing at −85° C. till it was used for binding assay as a membrane specimen.
# The binding assay was performed using 40 μl of the membrane specimen, 20 μl of [^3H]-raclopride (final concentration 1 to 2 nM), 20 μl of a test drug and 50 mM Tris-hydrochloric acid buffer (containing 120 mM NaCl, 5 mM KCl, 2 mM CaCl2, 1 mM MgCl2, pH 7.4) so that the total amount was 200 μl (final dimethylsulfoxide concentration 1%). The reaction was performed at room temperature for 1 hour and terminated by conducting suction filtration with a cell harvester on a glass fiber filter plate. The filter plate made of glass fiber was washed with 50 mM Tris-hydrochloric acid buffer (pH 7.4), and after dried, a microplate liquid scintillation cocktail was added and the radioactivity was measured with a microplate scintillation counter. Radioactivity in the presence of 10 μM (+)-butaclamol hydrochloride was assumed as nonspecific binding.
# (§1) IC50 value was calculated from concentration-dependent reaction using a non-linear analysis program. Ki value was calculated from IC50 value using Cheng-Prussoff formula.
# [1] = molecular target: Serotonin 5-HT2A receptor (Rattus norvegicus (Rat), UniProt P14842); assay: Serotonin 5-HT2A receptor binding assay ([3H]-Ketanserin, rat frontal cortex membrane); conditions: Ki from IC50 by Cheng-Prussoff formula
# Method: 2) Serotonin 5-HT2A Receptor Binding Assay
# The assay was performed according to the method by Leysen J E et al. (Leysen J E, Niemegeers C J E, Van Nueten J M and Laduron P M. [3H] Ketanserin (R 41 468), a selective 3H-ligand for serotonin 2 receptor binding sites. Mol. Pharmacol., 1982, 21: 301-314).
# Wistar male rats were decapitated, the brain was retrieved immediately and frontal cortex was taken out. It was homogenized in 0.25 M sucrose of a volume 10 times of the weight of the tissue using a Teflon glass homogenizer, and centrifuged at 4° C., 1,000×g for 10 minutes. The obtained supernatant was transferred to another centrifuge tube and suspended in 0.25 M sucrose of a volume 5 times of the weight of the tissue and the precipitate was centrifuged in the above-described condition. The obtained supernatant was combined with the supernatant obtained above and adjusted to a volume 40 times of the weight of the tissue with 50 mM Tris-hydrochloric acid buffer (pH 7.4), and centrifuged at 4° C., 35,000×g for 10 minutes. The obtained precipitate was suspended again in the above-described buffer of a volume 40 times of the weight of the tissue and centrifuged in the above-described condition. The obtained precipitate was suspended in the above-described buffer of a volume 20 times of the weight of the tissue and preserved by freezing at −85° C. till it was used for binding assay as a membrane specimen.
# The binding assay was performed using 40 μl of the membrane specimen, 20 μl of [^3H]-Ketanserin (final concentration 1 to 3 nM), 20 μl of a test drug and 50 mM Tris-hydrochloric acid buffer (pH 7.4) so that the total amount was 200 μl (final dimethylsulfoxide concentration 1%). The reaction was performed at 37° C. for 20 minutes and terminated by conducting suction filtration with a cell harvester on a glass fiber filter plate.
# The filter plate made of glass fiber was washed with 50 mM Tris-hydrochloric acid buffer (pH 7.4), and after dried, a microplate liquid scintillation cocktail was added and the radioactivity was measured with a microplate scintillation counter. Radioactivity in the presence of 10 μM spiperone was assumed as nonspecific binding.
# as §1
# Serotonin (5-HT) uptake = Serotonin (5-HT) uptake (Rattus norvegicus (Rat), UniProt P31652); assay: Serotonin (5-HT) uptake inhibitory activity by rat brain synaptosome; assay type: biochemical; conditions: test compound 300 nM, rat frontal cortex synaptosome; read-out: Serotonin uptake inhibitory ratio (%) (300 nM)
# Method: Measurement of Serotonin (5-HT) Uptake Inhibitory Activity of a Test Compound by Rat Brain Synaptosome
# Wistar male rats were decapitated, the brain was retrieved and frontal cortex was dissected out, and it was homogenized in 0.32 M sucrose solution of a weight 20 times of the weight of the tissue using a Potter type homogenizer. The homogenate was centrifuged at 4° C., 1,000×g for 10 minutes, the obtained supernatant was further centrifuged at 4° C., 20,000×g for 20 minutes, and the pellet was suspended in an incubation buffer (20 mM Hepes buffer (pH 7.4) containing 10 mM glucose, 145 mM sodium chloride, 4.5 mM potassium Chloride, 1.2 mM magnesium chloride, 1.5 mM calcium chloride), which was used as crude synaptosome fraction.
# 5-HT uptake reaction was performed in a volume of 200 μl using a 96-well round bottom plate and pargyline (final concentration 10 μM) and sodium ascorbate (final concentration 0.2 mg/ml) were contained in the incubation buffer upon reaction and used.
# Incubation buffer (total counting), non-labeled 5-HT (final concentration 10 μM, non-specific counting) and the diluted test compound (final concentration 300 nM) were added to each well. One-tenth quantity of the final volume of the synaptosome fraction was added and after preincubated at 37° C. for 10 minutes, tritium labeled 5-HT solution (final concentration 8 nM) was added and uptake reaction was started at 37° C. The uptake time was 10 minutes and the reaction was terminated by vacuum filtration through a 96-well fiber glass filter paper plate, and after the filter paper was washed with cold normal saline, it was dried enough and Microscint0 (Perkin-Elmer) was added to the filter and remaining radioactivity on the filter was measured.
# Chain of Dopamine D2 receptor (P61169 whole entry): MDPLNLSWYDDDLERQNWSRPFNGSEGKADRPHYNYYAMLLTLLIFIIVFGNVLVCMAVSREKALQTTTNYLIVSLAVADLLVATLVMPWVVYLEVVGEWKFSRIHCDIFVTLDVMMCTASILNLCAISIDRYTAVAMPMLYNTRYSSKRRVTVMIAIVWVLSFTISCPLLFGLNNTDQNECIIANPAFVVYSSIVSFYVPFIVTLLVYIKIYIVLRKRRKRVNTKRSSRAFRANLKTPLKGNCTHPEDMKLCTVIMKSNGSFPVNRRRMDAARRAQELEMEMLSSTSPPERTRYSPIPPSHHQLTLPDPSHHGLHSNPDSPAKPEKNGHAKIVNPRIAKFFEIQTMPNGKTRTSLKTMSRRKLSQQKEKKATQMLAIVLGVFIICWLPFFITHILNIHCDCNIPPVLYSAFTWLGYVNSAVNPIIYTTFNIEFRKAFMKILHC
# Chain of Serotonin (5-HT) uptake (P31652 whole entry): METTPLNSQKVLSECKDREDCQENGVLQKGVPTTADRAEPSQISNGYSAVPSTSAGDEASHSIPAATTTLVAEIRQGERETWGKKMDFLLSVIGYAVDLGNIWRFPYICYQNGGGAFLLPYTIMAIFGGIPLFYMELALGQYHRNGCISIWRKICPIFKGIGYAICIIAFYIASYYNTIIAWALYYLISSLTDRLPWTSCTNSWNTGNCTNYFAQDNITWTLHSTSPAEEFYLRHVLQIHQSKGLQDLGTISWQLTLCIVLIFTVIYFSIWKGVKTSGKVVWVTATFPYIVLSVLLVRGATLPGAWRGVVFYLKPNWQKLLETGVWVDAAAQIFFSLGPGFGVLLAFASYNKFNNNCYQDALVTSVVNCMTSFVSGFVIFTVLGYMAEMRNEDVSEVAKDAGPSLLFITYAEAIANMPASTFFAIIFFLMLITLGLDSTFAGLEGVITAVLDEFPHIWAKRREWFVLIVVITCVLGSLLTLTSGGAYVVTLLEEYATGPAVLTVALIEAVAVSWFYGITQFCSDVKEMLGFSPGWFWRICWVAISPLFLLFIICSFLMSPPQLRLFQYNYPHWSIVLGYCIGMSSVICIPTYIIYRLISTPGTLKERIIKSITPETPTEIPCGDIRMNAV
# Chain of Serotonin 5-HT2A receptor (P14842 whole entry): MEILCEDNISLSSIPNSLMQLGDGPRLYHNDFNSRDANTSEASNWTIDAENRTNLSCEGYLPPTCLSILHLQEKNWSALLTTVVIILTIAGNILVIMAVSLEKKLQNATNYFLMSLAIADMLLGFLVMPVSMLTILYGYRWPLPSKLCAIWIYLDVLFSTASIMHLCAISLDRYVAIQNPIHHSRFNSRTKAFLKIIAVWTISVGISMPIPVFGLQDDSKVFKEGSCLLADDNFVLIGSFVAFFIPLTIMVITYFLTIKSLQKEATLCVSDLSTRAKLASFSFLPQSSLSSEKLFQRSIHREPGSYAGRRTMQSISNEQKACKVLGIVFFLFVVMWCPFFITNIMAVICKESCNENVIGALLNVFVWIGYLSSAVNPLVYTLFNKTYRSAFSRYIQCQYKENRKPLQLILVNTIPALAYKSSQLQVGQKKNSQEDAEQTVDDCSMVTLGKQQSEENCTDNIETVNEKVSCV
Structure (SMILES),Ki (Dopamine D2 receptor),Ki [1],inhibition at 0.3 µM (Serotonin (5-HT) uptake),Ki ([1]; hydrochloride)
"O=c1ccc2ccc(OCCCCN3CCN(c4cccc5sccc45)CC3)cc2[nH]1 [Example 1, 7-[4-(4-benzo[b]thiophen-4-yl-piperazin-1-yl)butoxy]-1H-quinolin-2-one]",0.2 nM,2.3 nM,92.4%,
"O=c1[nH]c2ccccc2cc1OCCN1CCN(c2cccc3sccc23)CC1 [Example 2, 3-[2-(4-benzo[b]thiophen-4-yl-piperazin-1-yl)ethoxy]-1H-quinolin-2-one]",,1.5 nM,78.8%,
"Cc1cc(=O)[nH]c2cc(OCCCN3CCN(c4cccc5sccc45)CC3)ccc12 [Example 3, 7-[3-(4-benzo[b]thiophen-4-yl-piperazin-1-yl)propoxy]-4-methyl-1H-quinolin-2-one]",0.5 nM,2.3 nM,84.8%,
"Cc1cc(=O)[nH]c2cc(OCCCCN3CCN(c4cccc5sccc45)CC3)ccc12 [Example 4, 7-[4-(4-benzo[b]thiophen-4-yl-piperazin-1-yl)butoxy]-4-methyl-1H-quinolin-2-one]",0.5 nM,4.9 nM,91%,
"Cc1cc2ccc(OCCCCN3CCN(c4cccc5sccc45)CC3)cc2[nH]c1=O [Example 6, 7-[4-(4-benzo[b]thiophen-4-yl-piperazin-1-yl)butoxy]-3-methyl-1H-quinolin-2-one]",0.8 nM,,91.3%,
"O=C1CCc2ccc(OCCCCN3CCN(c4cccc5sccc45)CC3)cc2N1 [Example 11, 7-[4-(4-benzo[b]thiophen-4-yl-piperazin-1-yl)butoxy]-3,4-dihydro-1H-quinolin-2-one]",,5.7 nM,,
"O=C1CCc2ccc(OCCCCN3CCN(c4cccc5sccc45)CC3)cc2N1 [Example 12, 7-[4-(4-benzo[b]thiophen-4-yl-piperazin-1-yl)butoxy]-3,4-dihydro-1H-quinolin-2-one hydrochloride]",,,,2.1 nM
"O=C1CCc2ccc(OC/C=C\CN3CCN(c4cccc5sccc45)CC3)cc2N1 [Example 13, 7-[4-(4-benzo[b]thiophen-4-yl-piperazin-1-yl)-(Z)-2-butenyloxy]-3,4-dihydro-1H-quinolin-2-one]",2.4 nM,,77%,
"O=C1CCc2ccccc2N1CCCCCN1CCN(c2cccc3sccc23)CC1 [Example 22, 1-[5-(4-benzo[b]thiophen-4-yl-piperazin-1-yl)pentyl]-3,4-dihydro-1H-quinolin-2-one hydrochloride]",4 nM,,,
"O=C1NCCc2cc(OCCCN3CCN(c4cccc5sccc45)CC3)ccc21 [Example 25, 6-[3-(4-benzo[b]thiophen-4-yl-piperazin-1-yl)propoxy]-3,4-dihydro-2H-isoquinolin-1-one]",,4.6 nM,91.9%,
"O=C1NCCc2ccc(OCCCN3CCN(c4cccc5sccc45)CC3)cc21 [Example 28, 7-[3-(4-benzo[b]thiophen-4-yl-piperazin-1-yl)propoxy]-3,4-dihydro-2H-isoquinolin-1-one]",1.2 nM,,,
"CCN1CCc2ccc(OCCCN3CCN(c4cccc5sccc45)CC3)cc2C1=O [Example 31, 7-[3-(4-benzo[b]thiophen-4-yl-piperazin-1-yl)propoxy]-2-ethyl-3,4-dihydro-2H-isoquinolin-1-one dihydrochloride]",1.4 nM,,,
"CN1CCc2ccc(OCCCCN3CCN(c4cccc5sccc45)CC3)cc2C1=O [Example 32, 7-[4-(4-benzo[b]thiophen-4-yl-piperazin-1-yl)butoxy]-2-methyl-3,4-dihydro-2H-isoquinolin-1-one hydrochloride]",1.5 nM,,,
"O=c1[nH]ccc2ccc(OCCCN3CCN(c4cccc5sccc45)CC3)cc12 [Example 35, 7-[3-(4-benzo[b]thiophen-4-yl-piperazin-1-yl)propoxy]-2H-isoquinolin-1-one]",1.6 nM,,,
"Cn1ccc2ccc(OCCCN3CCN(c4cccc5sccc45)CC3)cc2c1=O [Example 36, 7-[3-(4-benzo[b]thiophen-4-yl-piperazin-1-yl)propoxy]-2-methyl-2H-isoquinolin-1-one hydrochloride]",,2.1 nM,,
"COc1ccc2ccn(CCCCN3CCN(c4cccc5sccc45)CC3)c(=O)c2c1 [Example 38, 2-[4-(4-benzo[b]thiophen-4-yl-piperazin-1-yl)butyl]-7-methoxy-2H-isoquinolin-1-one hydrochloride]",,7.3 nM,,
"O=c1c2cc(O)ccc2ccn1CCCCN1CCN(c2cccc3sccc23)CC1 [Example 39, 2-[4-(4-benzo[b]thiophen-4-yl-piperazin-1-yl)butyl]-7-hydroxy-2H-isoquinolin-1-one hydrobromide]",1.2 nM,,,
O=C1CCc2cc(OCCCN3CCN(c4cccc5sccc45)CC3)cc(F)c2N1 [Example 116],4.5 nM,4.2 nM,,
Cc1cccc2cc(OCCCN3CCN(c4cccc5sccc45)CC3)c(=O)[nH]c12 [Example 117],4.7 nM,,,
O=c1ccc2cc(OCCCN3CCN(c4cccc5sccc45)CC3)cc(F)c2[nH]1 [Example 118],3.5 nM,3.4 nM,,
O=C1CCc2c(cccc2OCCCN2CCN(c3cccc4sccc34)CC2)N1 [Example 122],3.3 nM,2.9 nM,,
O=C1CCc2cc(CO)c(OCCCN3CCN(c4cccc5sccc45)CC3)cc2N1 [Example 139],0.2 nM,,,
CC(=O)Nc1ccc(OCCCN2CCN(c3cccc4sccc34)CC2)c2c1NC(=O)CC2 [Example 155],2.3 nM,3 nM,,
O=c1ccc2cc(OCCCCN3CCN(c4cccc5sccc45)CC3)cc(F)c2[nH]1 [Example 184],2.6 nM,4.3 nM,,
Cc1cc(=O)[nH]c2ccc(OCCCCN3CCN(c4cccc5sccc45)CC3)cc12 [Example 185],2.7 nM,5 nM,,
O=C1CCc2cccc(OCCCCN3CCN(c4cccc5sccc45)CC3)c2N1 [Example 186],2.3 nM,8.8 nM,,
O=c1ccc2cccc(OCCCCN3CCN(c4cccc5sccc45)CC3)c2[nH]1 [Example 188],1.6 nM,6.3 nM,,
O=C1CCc2c(O)ccc(OCCCN3CCN(c4cccc5sccc45)CC3)c2N1 [Example 190],0.8 nM,,,
